From patent US8637536B2, “Pyrimidinone compounds for use in the treatment of diseases or conditions mediated by Lp-PLA2” (Glaxo Group Limited, priority 2010, dated 2014)
Structures can show the parent of a compound that is named as a salt.

Target: T1, Lp-PLA2 from plasma (pooled human plasma) (Homo sapiens, UniProt Q13093)
T1 construct: 8 μL pooled human plasma; from tissue; host or cells: pooled human plasma
T1 sequence (Q13093 22-441): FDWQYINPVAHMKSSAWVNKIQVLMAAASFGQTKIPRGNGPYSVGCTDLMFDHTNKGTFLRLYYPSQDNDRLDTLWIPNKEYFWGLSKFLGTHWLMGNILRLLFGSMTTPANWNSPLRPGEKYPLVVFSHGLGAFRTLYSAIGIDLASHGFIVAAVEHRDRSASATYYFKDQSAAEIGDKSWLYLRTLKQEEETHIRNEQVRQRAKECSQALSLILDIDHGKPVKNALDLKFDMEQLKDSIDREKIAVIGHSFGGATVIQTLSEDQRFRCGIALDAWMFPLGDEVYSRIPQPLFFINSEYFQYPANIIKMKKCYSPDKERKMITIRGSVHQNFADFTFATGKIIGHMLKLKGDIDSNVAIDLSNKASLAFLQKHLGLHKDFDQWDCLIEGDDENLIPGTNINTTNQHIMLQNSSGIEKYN
Assay: Lp-PLA2 human plasma assay (Thio-PAF assay)
Format: biochemical
Details: text thresholds, read-out: pIC50 values in the thio-PAF assay (converted)
Excerpt: (3) Lipoprotein-Associated Phospholipase A2 (Lp-PLA2) Human Plasma Assay (Also Referred to as “Thio-PAF Assay”)
The human plasma assay utilizes a thioester analog of PAF (phosphatidylcholine), where hydrolysis yields to the formation of a phospholipid containing a free thiol group. The amount of thiol is quantitated continuously by reacting with CPM (7-diethylamino-3-(4′-maleimidylphenyl)-4-methylcoumarin), a maleimide which increases in fluoresence after Michael addition of thiols. This assay may detect the activity of Lp-PLA2 from plasma, as determined by specific inhibition by Lp-PLA2 inhibitors.
The thio-PAF assay was run as a quenched 15 μL assay. Compounds source plate was prepared by making 1:3 (by volume) serial dilution of the compounds into pure DMSO on 384-well microplate. 0.01 μL of compounds on compound source plate were transferred to 384 well Greiner 784076 (black) low-volume plates by ECHO liquid dispenser. 8 μL pooled human plasma, which was previously aliquoted and frozen, was added. Plates were centrifuged for 10 sec at 500 rpm. After 30 minutes preincubation, 2 μL of substrate (2.5 mM thio-PAF, 3.2 mM NEM (N-ethylmaleimide) [made fresh daily in DMSO], and 32 μM CPM [from a DMSO stock] in assay buffer of 50 mM HEPES, pH7.4, 150 mM NaCl, 1 mM CHAPS was added to 384 well Greiner 784076 (black) low-volume plates by BRAVO liquid handling station. Plates were centrifuged for 10 sec at 500 rpm. Plate was covered to protect from light and incubated for 2 min at room temperature. Reaction was quenched with 5 μL of 5% aqueous trifluoroacetic acid (TFA). Plates were covered to protect from light and incubated for 40 min at room temperature. Plates were read at ex: 380/em: 485 using-Envision microplate reader. PIC50 data, curve and QC analysis was conducted by using XLFit module in Excel.

Row | IC50 [nM] | SMILES
1 | ≤ 1000 | COc1ncc(Cc2c[nH]c(NCCc3ccc(Oc4ccc(C(F)(F)F)cn4)cc3)nc2=O)cn1 [E186, 5-(2-methoxy-pyrimidin-5-ylmethyl)-2-{2-[4-(5-trifluoromethyl-pyridin-2-yloxy)phenyl]-ethylamino}-1H-pyrimidin-4-one]
2 | ≤ 1000 | COc1ncc(Cc2c[nH]c(OCCc3ccc(Oc4ccc(C)c(F)c4)cc3)nc2=O)cn1 [E157, 2-[(2-{4-[(3-fluoro-4-methylphenyl)oxy]phenyl}ethyl)oxy]-5-{[2-(methyloxy)-5-pyrimidinyl]methyl}-4(1H)-pyrimidinone]
3 | ≤ 100 | N#Cc1cc(CSc2nc(=O)c(Cc3cncnc3)c[nH]2)ccc1Oc1ccc(C(F)(F)F)cn1 [E73, 5-({[4-oxo-5-(5-pyrimidinylmethyl)-1,4-dihydro-2-pyrimidinyl]thiol}methyl)-2-{[5-(trifluoromethyl)-2-pyridinyl]oxy}benzonitrile]
4 | ≤ 100 | CCc1cn(C)c(OCCc2cc(F)c(Oc3ccc(Cl)c(C(F)(F)F)c3)c(F)c2)nc1=O [E175, 2-{[2-(4-{[4-chloro-3-(trifluoromethyl)phenyl]oxy}-3,5-difluorophenyl)ethyl]oxy}-5-ethyl-1-methyl-4(1H)-pyrimidinone]
5 | ≤ 100 | COc1ncc(Cc2c[nH]c(OCCc3cc(F)c(Oc4cnc(C(F)(F)F)nc4)c(F)c3)nc2=O)cn1 [E169, 2-(3,5-difluoro-4-((2-(trifluoromethyl)pyrimidin-5-yl)oxy)phenethoxy)-5-((2-methoxypyrimidin-5-yl)methyl)pyrimidin-4(1H)-one]
6 | ≤ 1000 | CN(CCc1ccc(Oc2cccc(C(F)(F)F)c2)cc1)c1nc(=O)c(Cc2cncnc2)c[nH]1 [E187, 2-(Methyl-{2-[4-(3-trifluoromethyl-phenoxy)-phenyl]-ethyl}-amino)-5-pyrimidin-5-ylmethyl-1H-pyrimidin-4-one]
7 | ≤ 100 | Cn1cc(Cc2cncnc2)c(=O)nc1SCc1ccc(Oc2ccc(C(F)(F)F)cn2)c(C#N)c1 [E105, 5-({[1-methyl-4-oxo-5-(5-pyrimidinylmethyl)-1,4-dihydro-2-pyrimidinyl]thio}methyl)-2-{[5-(trifluoromethyl)-2-pyridinyl]oxy}benzonitrile]
8 | ≤ 100 | CCc1cn(C)c(OCCc2ccc(Oc3ccc(Cl)c(C(F)(F)F)c3)c(F)c2)nc1=O [E174, 2-{[2-(4-{[4-chloro-3-(trifluoromethyl)phenyl]oxy}-3-fluorophenyl)ethyl]oxy}-5-ethyl-1-methyl-4(1H)-pyrimidinone]
9 | ≤ 1000 | Cn1cc(Cc2cncnc2)c(=O)nc1CCc1ccc(Oc2ccc(Cl)c(C(F)(F)F)c2)cc1 [E4, 2-[2-(4-{[4-Chloro-3-(trifluoromethyl)phenyl]oxy}phenyl)ethyl]-1-methyl-5-(5-pyrimidinylmethyl)-4(1H)-pyrimidinone]
10 | ≤ 100 | Cn1cc(Cc2cn(C)c(SCCc3ccc(Oc4cccc(C(F)(F)F)c4)c(C#N)c3)nc2=O)cn1 [E92, 5-[2-({1-methyl-5-[(1-methyl-1H-pyrazol-4-yl)methyl]-4-oxo-1,4-dihydro-2-pyrimidinyl}thio)ethyl]-2-{[3-(trifluoromethyl)phenyl]oxy}benzonitrile, trifluoroacetic acid salt]
11 | ≤ 100 | COc1ncc(Cc2c[nH]c(NCCc3ccc(Oc4ccc(Cl)c(C(F)(F)F)c4)cc3)nc2=O)cn1 [E9, 2-{[2-(4-{[4-Chloro-3-(trifluoromethyl)phenyl]oxy}phenyl)ethyl]amino}-5-{[2-(methyloxy)-5-pyrimidinyl]methyl}-4(1H)-pyrimidinone]
12 | ≤ 1000 | O=c1nc(NCCc2ccc(Oc3ccc(Cl)cc3)cc2)[nH]cc1Cc1cncnc1 [E194, 2-{2-[4-(4-Chloro-phenoxy)-phenyl]-ethylamino}-5-pyrimidin-5-ylmethyl-1H-pyrimidin-4-one]
13 | ≤ 100 | O=c1nc(OCCc2ccc(Oc3ccc(Cl)c(OC(F)(F)F)c3)cc2)[nH]cc1Cc1cncnc1 [E177, 2-(4-(4-chloro-3-(trifluoromethoxy)phenoxy)phenethoxy)-5-(pyrimidin-5-ylmethyl)pyrimidin-4(1H)-one]
14 | ≤ 1000 | O=c1ncc(Cc2c[nH]c(NCCc3ccc(Oc4ccc(Cl)c(C(F)(F)F)c4)cc3)nc2=O)c[nH]1 [E209, 2-{2-[4-(4-chloro-3-trifluoromethyl-phenoxy)-phenyl]ethylamino}-5-(2-oxo-1,2-dihydro-pyrimidin-5-ylmethyl)-1H-pyrimidin-4-one]
15 | ≤ 1000 | O=c1nc(OCCc2ccc(Oc3ccc(Cl)c(C(F)(F)F)c3)cc2)[nH]cc1Cc1cnc(C(F)(F)F)nc1 [E126, 2-{[2-(4-{[4-chloro-3-(trifluoromethyl)phenyl]oxy}phenyl)ethyl]oxy}-5-{[2-(trifluoromethyl)-5-pyrimidinyl]methyl}-4(1H)-pyrimidinone]
16 | ≤ 100 | Cn1cc(Cc2cn(C)c(SCCc3ccc(Oc4ccc(Cl)c(C(F)(F)F)c4)cc3)nc2=O)cn1 [E113, 2-{[2-(4-{[4-chloro-3-(trifluoromethyl)phenyl]oxy}phenyl)ethyl]thio}-1-methyl-5-[(1-methyl-1H-pyrazol-4-yl)methyl]-4(1H)-pyrimidinone]
17 | ≤ 100 | COc1ncc(Cc2c[nH]c(OCCc3ccc(Oc4cc(Cl)cc(C(F)(F)F)c4)cc3)nc2=O)cn1 [E165, 2-{[2-(4-{[3-chloro-5-(trifluoromethyl)phenyl]oxy}phenyl)ethyl]oxy}-5-{[2-(methyloxy)-5-pyrimidinyl]methyl}-4(1H)-pyrimidinone]
18 | ≤ 100 | COc1ncc(Cc2c[nH]c(OCCc3ccc(Oc4ccc(Cl)c(OC(F)(F)F)c4)cc3)nc2=O)cn1 [E178, 2-(4-(4-chloro-3-(trifluoromethoxy)phenoxy)phenethoxy)-5-((2-methoxypyrimidin-5-yl)methyl)pyrimidin-4(1H)-one]
19 | ≤ 100 | Cn1cc(Cc2cncnc2)c(=O)nc1SCc1ccc(Oc2ccc(Cl)c(C(F)(F)F)c2)c(C#N)c1 [E79, 2-{[4-chloro-3-(trifluoromethyl)phenyl]oxy}-5-({[1-methyl-4-oxo-5-(5-pyrimidinylmethyl)-1,4-dihydro-2-pyrimidinyl]thio}methyl)benzonitrile]
20 | ≤ 100 | COc1ncc(Cc2c[nH]c(OCCc3ccc(Oc4cnc(C(F)(F)F)nc4)c(F)c3)nc2=O)cn1 [E167, 2-(3-fluoro-4-((2-(trifluoromethyl)pyrimidin-5-yl)oxy)phenethoxy)-5-((2-methoxypyrimidin-5-yl)methyl)pyrimidin-4(1H)-one]
21 | ≤ 1000 | Cc1ncc(Cc2c[nH]c(NCCc3ccc(Oc4ccc(C(F)(F)F)cn4)cc3)nc2=O)cn1 [E208, 5-(2-methyl-pyrimidin-5-ylmethyl)-2-{2-[4-(5-trifluoromethyl-pyridin-2-yloxy)phenyl]ethylamino}-1H-pyrimidin-4-one]
22 | ≤ 1000 | COc1ncc(Cc2cn(C)c(CCc3ccc(Oc4ccc(Cl)c(C(F)(F)F)c4)cc3)nc2=O)cn1 [E3, 2-[2-(4-{[4-Chloro-3-(trifluoromethyl)phenyl]oxy}phenyl)ethyl]-1-methyl-5-{[2-(methyloxy)-5-pyrimidinyl]methyl}-4(1H)-pyrimidinone]
23 | ≤ 100 | Cn1cc(Cc2cncnc2)c(=O)nc1SCc1ccc(Oc2ccc(F)c(C(F)(F)F)c2)c(C#N)c1 [E88, 2-{[4-fluoro-3-(trifluoromethyl)phenyl]oxy}-5-({[1-methyl-4-oxo-5-(5-pyrimidinylmethyl)-1,4-dihydro-2-pyrimidinyl]thio}methyl)benzonitrile]
24 | ≤ 100 | Cc1ncc(Cc2c[nH]c(NCCc3ccc(Oc4ccc(C(F)(F)F)cn4)c(C#N)c3)nc2=O)cn1 [E203, 5-{2-[5-(2-Methyl-pyrimidin-5-ylmethyl)-4-oxo-1,4-dihydro-pyrimidin-2-ylamino]-ethyl}-2-(5-trifluoromethyl-pyridin-2-yloxy)-benzonitrile]
25 | ≤ 1000 | COc1ncc(Cc2c[nH]c(NCCc3ccc(Oc4cccc(C(F)(F)F)c4)cc3)nc2=O)cn1 [E193, 5-(2-methoxy-pyrimidin-5-ylmethyl)-2-{2-[4-(3-trifluoromethyl-phenoxy)phenyl]-ethylamino}-1H-pyrimidin-4-one]
26 | ≤ 100 | O=c1nc(OCCc2cc(F)c(Oc3cnc(C(F)(F)F)nc3)c(F)c2)[nH]cc1Cc1cncnc1 [E168]
